Source: ChEMBL document CHEMBL3286384, “Synthesis, cytotoxicity, antimicrobial and anti-biofilm activities of novel pyrazolo[3,4-b]pyridine and pyrimidine functionalized 1,2,3-triazole derivatives” (Bioorg Med Chem Lett, 2014)
Values after ≈ are worked out from the molar mass of the structure shown. Active and inactive are the calls of the source. The calls are words filed in the database; no cut-off is given here.

Columns and labels:
MCF7 = assay: Cytotoxicity against human MCF7 cells after 24 hrs by MTT assay; assay type: functional, cell-based; conditions: MCF7, 24 h
A549 = assay: Cytotoxicity against human A549 cells after 24 hrs by MTT assay; assay type: functional, cell-based; conditions: A549, 24 h
HeLa = assay: Cytotoxicity against human HeLa cells after 24 hrs by MTT assay; assay type: functional, cell-based
DU-145 = assay: Cytotoxicity against human DU145 cells after 24 hrs by MTT assay; assay type: functional, cell-based; conditions: DU-145, 24 h
Micrococcus luteus [1] = assay: Antimicrobial activity against Micrococcus luteus MTCC 2470 after 24 hrs by well diffusion method; assay type: functional
Pseudomonas aeruginosa [2] = assay: Antimicrobial activity against Pseudomonas aeruginosa MTCC 2453 after 24 hrs by well diffusion method; assay type: functional
Candida albicans [3] = conditions: MTCC 3017
Description: (§1) Antimicrobial activity against Candida albicans MTCC 3017 after 24 hrs by well diffusion method

Staphylococcus aureus [4] = assay: Antimicrobial activity against Staphylococcus aureus MTCC 96 after 24 hrs by well diffusion method; assay type: functional
Escherichia coli [5] = assay: Antimicrobial activity against Escherichia coli MTCC 739 after 24 hrs by well diffusion method; assay type: functional
Raoultella planticola [6] = assay: Antimicrobial activity against Klebsiella planticola MTCC 530 after 24 hrs by well diffusion method; assay type: functional
Bacillus subtilis [7] = assay: Antimicrobial activity against Bacillus subtilis MTCC 121 after 24 hrs by well diffusion method; assay type: functional
Staphylococcus aureus [8] = assay: Antimicrobial activity against Staphylococcus aureus MLS-16 MTCC 2940 after 24 hrs by well diffusion method; assay type: functional
Candida albicans [9] = assay: microbe, parasite or virus in culture; conditions: MTCC 3017, 24 h
Description: as §1

Micrococcus luteus [10] = assay: Antimicrobial activity against Micrococcus luteus MTCC 2470 assessed as inhibition of biofilm formation after 24 hrs by crystal violet staining-based assay; assay type: functional, organism-based; conditions: MTCC 2470, 24 h
Pseudomonas aeruginosa [11] = assay: Antimicrobial activity against Pseudomonas aeruginosa MTCC 2453 assessed as inhibition of biofilm formation after 24 hrs by crystal violet staining-based assay; assay type: functional, organism-based; conditions: MTCC 2453, 24 h
Staphylococcus aureus [12] = assay: Antimicrobial activity against Staphylococcus aureus MTCC 96 assessed as inhibition of biofilm formation after 24 hrs by crystal violet staining-based assay; assay type: functional, organism-based; conditions: MTCC 96, 24 h
Staphylococcus aureus [13] = assay: Bactericidal activity against Staphylococcus aureus MLS-16 MTCC 2940 after 24 hrs by agar plating method; assay type: functional; conditions: MLS-16 MTCC 2940, 24 h
Micrococcus luteus [14] = assay: Bactericidal activity against Micrococcus luteus MTCC 2470 after 24 hrs by agar plating method; assay type: functional; conditions: MTCC 2470, 24 h
Pseudomonas aeruginosa [15] = assay: Bactericidal activity against Pseudomonas aeruginosa MTCC 2453 after 24 hrs by agar plating method; assay type: functional; conditions: MTCC 2453, 24 h
Staphylococcus aureus [16] = assay: Bactericidal activity against Staphylococcus aureus MTCC 96 after 24 hrs by agar plating method; assay type: functional; conditions: MTCC 96, 24 h
Raoultella planticola [17] = assay: Antimicrobial activity against Klebsiella planticola MTCC 530 assessed as inhibition of biofilm formation after 24 hrs by crystal violet staining-based assay; assay type: functional, organism-based; conditions: MTCC 530, 24 h
Raoultella planticola [18] = assay: Bactericidal activity against Klebsiella planticola MTCC 530 after 24 hrs by agar plating method; assay type: functional; conditions: MTCC 530, 24 h
Bacillus subtilis [19] = assay: Bactericidal activity against Bacillus subtilis MTCC 121 after 24 hrs by agar plating method; assay type: functional; conditions: MTCC 121, 24 h
Escherichia coli [20] = assay: Bactericidal activity against Escherichia coli MTCC 739 after 24 hrs by agar plating method; assay type: functional; conditions: MTCC 739, 24 h
Staphylococcus aureus [21] = assay: Antimicrobial activity against Staphylococcus aureus MLS-16 MTCC 2940 assessed as inhibition of biofilm formation after 24 hrs by crystal violet staining-based assay; assay type: functional, organism-based; conditions: MLS-16 MTCC 2940, 24 h

Compound: O=c1[nH]cc(F)c(=O)[nH]1 [FLUOROURACIL]
- IC50 (MCF7): 1.4 µM
- IC50 (A549): 1.3 µM
- IC50 (HeLa): 1.3 µM
- IC50 (DU-145): 1.5 µM

Compound: Nc1n[nH]c2nc(C(F)(F)F)ccc12
- IC50 (MCF7): 58.4 µM
- IC50 (A549): 22.4 µM
- IC50 (HeLa): 60.2 µM
- IC50 (DU-145): 29.1 µM

Compound: C#CCn1nc(-n2cc(COc3cc(C(F)(F)F)nc(N)n3)nn2)c2ccc(C(F)(F)F)nc21
- MIC (Micrococcus luteus [1]; MTCC 2470, 24 h): > 250 µg/mL
- IC50 (MCF7): > 100 µM
- MIC (Pseudomonas aeruginosa [2]; MTCC 2453, 24 h): > 250 µg/mL
- IC50 (A549): 4.1 µM
- MIC (Candida albicans [3]): inactive
- IC50 (HeLa): > 100 µM
- MIC (Staphylococcus aureus [4]; MTCC 96, 24 h): > 250 µg/mL
- MIC (Escherichia coli [5]; MTCC 739, 24 h): > 250 µg/mL
- MIC (Raoultella planticola [6]; MTCC 530, 24 h): > 250 µg/mL
- MIC (Bacillus subtilis [7]; MTCC 121, 24 h): > 250 µg/mL
- IC50 (DU-145): 4.7 µM
- MIC (Staphylococcus aureus [8]; MLS-16 MTCC 2940, 24 h): > 250 µg/mL

Compound: CCn1nc(-n2cc(COc3cc(C(F)(F)F)nc(N)n3)nn2)c2ccc(C(F)(F)F)nc21
- MIC (Micrococcus luteus [1]; MTCC 2470, 24 h): > 250 µg/mL
- IC50 (MCF7): > 100 µM
- MIC (Pseudomonas aeruginosa [2]; MTCC 2453, 24 h): > 250 µg/mL
- IC50 (A549): 25.4 µM
- MIC (Candida albicans [3]): inactive
- IC50 (HeLa): > 100 µM
- MIC (Staphylococcus aureus [4]; MTCC 96, 24 h): > 250 µg/mL
- MIC (Escherichia coli [5]; MTCC 739, 24 h): > 250 µg/mL
- MIC (Raoultella planticola [6]; MTCC 530, 24 h): > 250 µg/mL
- MIC (Bacillus subtilis [7]; MTCC 121, 24 h): > 250 µg/mL
- IC50 (DU-145): 27.7 µM
- MIC (Staphylococcus aureus [8]; MLS-16 MTCC 2940, 24 h): > 250 µg/mL

Compound: Clc1ccc(COC(Cn2ccnc2)c2ccc(Cl)cc2Cl)c(Cl)c1 (configuration not stated) [MICONAZOLE]
- MIC (Micrococcus luteus [1]): inactive
- MIC (Pseudomonas aeruginosa [2]): inactive
- MIC (Staphylococcus aureus [4]): inactive
- MIC (Candida albicans [9]): 7.8 µg/mL (≈ 18.7 µM)
- MIC (Escherichia coli [5]): inactive
- MIC (Raoultella planticola [6]): inactive
- MIC (Bacillus subtilis [7]): inactive
- MIC (Staphylococcus aureus [8]): inactive

Compound: CCCCCCCCCCn1nc(-n2cc(Cn3c(N)nc(C(F)(F)F)cc3=O)nn2)c2ccc(C(F)(F)F)nc21
- IC50 (MCF7): 15.7 µM
- IC50 (A549): 14.3 µM
- IC50 (HeLa): 13.4 µM
- IC50 (DU-145): 17.1 µM

Compound: Nc1nc(C(F)(F)F)cc(=O)n1Cc1cn(-c2n[nH]c3nc(C(F)(F)F)ccc23)nn1
- IC50 (MCF7): 14.4 µM
- IC50 (A549): 9.5 µM
- IC50 (HeLa): 16.1 µM
- IC50 (DU-145): 10.5 µM

Compound: C#CCn1nc(-n2cc(Cn3c(N)nc(C(F)(F)F)cc3=O)nn2)c2ccc(C(F)(F)F)nc21
- IC50 (MCF7): 12.4 µM
- IC50 (A549): 21.2 µM
- IC50 (HeLa): 10.2 µM
- IC50 (DU-145): 23.4 µM

Compound: Nc1nc(OCc2cn(-c3n[nH]c4nc(C(F)(F)F)ccc34)nn2)cc(C(F)(F)F)n1
- MIC (Micrococcus luteus [1]; MTCC 2470, 24 h): 7.8 µg/mL (≈ 17.5 µM)
- IC50 (Micrococcus luteus [10]): 7.8 µg/mL (≈ 17.5 µM)
- IC50 (Pseudomonas aeruginosa [11]): 3.9 µg/mL (≈ 8.76 µM)
- IC50 (MCF7): > 100 µM
- MIC (Pseudomonas aeruginosa [2]; MTCC 2453, 24 h): 7.8 µg/mL (≈ 17.5 µM)
- IC50 (Staphylococcus aureus [12]): 7.8 µg/mL (≈ 17.5 µM)
- MBC (Staphylococcus aureus [13]): 31.2 µg/mL (≈ 70.1 µM)
- IC50 (A549): 22.8 µM
- MBC (Micrococcus luteus [14]): 15.6 µg/mL (≈ 35 µM)
- MIC (Candida albicans [3]): inactive
- IC50 (HeLa): > 100 µM
- MBC (Pseudomonas aeruginosa [15]): 15.6 µg/mL (≈ 35 µM)
- MBC (Staphylococcus aureus [16]): 31.2 µg/mL (≈ 70.1 µM)
- IC50 (Raoultella planticola [17]): 7.8 µg/mL (≈ 17.5 µM)
- MIC (Staphylococcus aureus [4]; MTCC 96, 24 h): 15.6 µg/mL (≈ 35 µM)
- MBC (Raoultella planticola [18]): 31.2 µg/mL (≈ 70.1 µM)
- MBC (Bacillus subtilis [19]): 31.2 µg/mL (≈ 70.1 µM)
- MIC (Escherichia coli [5]; MTCC 739, 24 h): 7.8 µg/mL (≈ 17.5 µM)
- MIC (Raoultella planticola [6]; MTCC 530, 24 h): 15.6 µg/mL (≈ 35 µM)
- MIC (Bacillus subtilis [7]; MTCC 121, 24 h): 15.6 µg/mL (≈ 35 µM)
- IC50 (DU-145): 28.9 µM
- MBC (Escherichia coli [20]): 7.8 µg/mL (≈ 17.5 µM)
- MIC (Staphylococcus aureus [8]; MLS-16 MTCC 2940, 24 h): 15.6 µg/mL (≈ 35 µM)
- IC50 (Staphylococcus aureus [21]): 7.8 µg/mL (≈ 17.5 µM)

Compound: CCCCCCCCn1nc(-n2cc(Cn3c(N)nc(C(F)(F)F)cc3=O)nn2)c2ccc(C(F)(F)F)nc21
- IC50 (MCF7): 11.3 µM
- IC50 (A549): 10.1 µM
- IC50 (HeLa): 9.4 µM
- IC50 (DU-145): 12.2 µM

Compound: CCCCCCCCn1nc(-n2cc(COc3cc(C(F)(F)F)nc(N)n3)nn2)c2ccc(C(F)(F)F)nc21
- MIC (Micrococcus luteus [1]; MTCC 2470, 24 h): > 250 µg/mL
- IC50 (MCF7): 24.7 µM
- MIC (Pseudomonas aeruginosa [2]; MTCC 2453, 24 h): > 250 µg/mL
- IC50 (A549): 5.7 µM
- MIC (Candida albicans [3]): inactive
- IC50 (HeLa): 22.7 µM
- MIC (Staphylococcus aureus [4]; MTCC 96, 24 h): > 250 µg/mL
- MIC (Escherichia coli [5]; MTCC 739, 24 h): > 250 µg/mL
- MIC (Raoultella planticola [6]; MTCC 530, 24 h): > 250 µg/mL
- MIC (Bacillus subtilis [7]; MTCC 121, 24 h): > 250 µg/mL
- IC50 (DU-145): 6.3 µM
- MIC (Staphylococcus aureus [8]; MLS-16 MTCC 2940, 24 h): > 250 µg/mL
